Reference: US11110095B2, “Pyrimidine compounds as JAK kinase inhibitors” (THERAVANCE BIOPHARMA R&D IP, LLC, priority 2016, dated 2021)
Entries after “also recorded” stand apart in the source; their conditions may differ. One block for each compound: values may come before it.

Assays:
[1] = Colon pharmacokinetics in rats; type: in vivo, Sprague Dawley rats; conditions: rat, oral administration (summary statement)
Procedure: The test compound was formulated in 0.5% methyl-cellulose in water and dosed via oral gavage at 3.2 mg/kg and 100 mg/kg to Sprague Dawley rats. At various time points (typically 0.5, 1, 3, 6, 24 hr) post dosing, blood samples were removed via cardiac puncture and intact colons were excised from the rats. Blood samples were centrifuged at 1500×g for 15 min to collect plasma. Colons were washed with ice cold phosphate buffered saline (PBS), weighed, and homogenized at a dilution of 1:10 in PBS. Plasma and colon levels of test compound were determined by LC-MS analysis against analytical standards constructed into a standard curve in the test matrix. A colon to plasma ratio was determined as the ratio of the colon AUC to the plasma AUC in μg hr/g.

[2] = system: oxazolone-induced colitis; assay: Mouse model of oxazolone-induced colitis; type: in vivo, BALB/C mice; conditions: mice (summary statement)
Procedure: Oxazolone-induced colitis is an experimental model that has a histological resemblance to human ulcerative colitis (Heller et al. […], 2002, 17, 629-638). Adult BALB/C mice from Harlan were used in the assay. On day 1, animals were lightly anesthetized with isoflurane and the hairs between the shoulder were carefully removed before oxazolone (4%, 150 μL, 4:1 acetone: olive oil formulation) or vehicle solution was slowly applied for skin sensitization. Seven days after skin sensitization, the mice were fasted overnight, anesthetized with isoflurane inhalation, and a 1 mL syringe equipped with a 3.5-F catheter, filled with oxazolone solution, was inserted carefully about 4 cm into the colon of the mouse. Following insertion, 50 μL of the oxazolone solution (1%, 1:1 ethanol:water formulation) was injected very slowly (over 30 sec using an injection pump) into the colon. […] Two-day post oxazolone intrarectal challenge, the Disease Activity Index (DAI) was assessed by treatment-blinded experimenters for each mouse according to the criteria score: stool consistency score (0, normal; 2, loose; 4, diarrhea), gross bleeding score (0, absence; 2, blood tinged; 4, presence), and weight loss score (0, none; 1, 1%-5%; 2, 5%-10%; 3, 10%-20%; 4, more than 20%); DAI=average of (stool consistency score+gross bleeding score+weight loss score). […]

[3] = system: TPA-induced increase in ear thickness; assay: Topical TPA-induced irritant contact dermatitis model in mice; type: in vivo, Balb/c mice; conditions: mouse, topical 30-3000 μg per ear, 6 hours after TPA
Procedure: The objective of this assay is to assess the anti-inflammatory effect in a model of acute dermatitis of test compounds being studied for cutaneous inflammatory conditions such as atopic dermatitis (Dong et al., J Pharmacol Exp Ther, 2013, 344, 436-446).
Topical dermal application of phorbol ester 12-O-tetradecanoylphorbol-13-acetate (TPA) in mice causes an inflammatory response that is characterized by edema and neutrophil influx at the early phase (2-24 h) and by epidermal cell proliferation at the later phase (24-48 h) (Griffiths et al., Agents and Actions, 1988, 25, 344-351). Female Balb/c mice were topically administered with either vehicle (1:7 DMSO:acetone) or 20 μL of a solution of TPA (2.5 μg) in vehicle on each ear. At 30 min before and 15 min after TPA administration, either vehicle or the compound of Example 2 at doses of 30, 100, 300, 1000, and 3000 μg in vehicle was applied topically to each ear. The degree of inflammation was assessed as the change in ear thickness at 6 hours after TPA application.

[4] = system: splenic NK, B and T cells; conditions: mouse, in vivo; for B and T cell populations (spleen): po
Procedure: Depletion of mouse splenic cells is an experimental model of immunosuppression (Kudlacz et al., Am. J. of Transplantation, 2004, 4, 51-57). The compound of Example 2 was assessed in the mouse splenic cell model following the same treatment paradigm as that used in the oxazolone-induced colitis model (Assay 8).
The compound (1, 10 and 100 mg/kg, BID) and tofacitinib (30 and 60 mg/kg, BID) as a positive control were dosed orally for three days to naïve mice. Spleens were harvested 1 h post last dose and crushed immediately for cell subtype staining. Prior to fixation, fluorophore-labelled antibodies for CD19 (FITC; B cells), CD3e (PE; pan T cells) and DX5 (APC; NK cells) were incubated with splenocyte samples from each animal to allow for simultaneous, multiple subtype % analysis on the flow cytometer. The number of total spleen cells for each animal was measured by Scepter™ 2.0 Handheld Automated Cell Counter.
The absolute number of lymphocyte subtype population (e.g., splenic B, T and NK cells) was calculated from the percentage of each subtype times total spleen cells for each animal. A one way ANOVA, with Dunnett's post hoc test, was used to compare the splenic lymphocytes number of the vehicle and test compound groups. The a level was set at p<0.05. Data were presented as the mean±SEM for each group.

[5] = molecular target: JAK3 (Homo sapiens (Human), UniProt P52333); assay: LanthaScreen JAK biochemical assay, JAK3
Procedure: A panel of four LanthaScreen JAK biochemical assays (JAK1, 2, 3 and Tyk2) were carried in a common kinase reaction buffer (50 mM HEPES, pH 7.5, 0.01% Brij-35, 10 mM MgCl2, and 1 mM EGTA). Recombinant GST-tagged JAK enzymes and a GFP-tagged STAT1 peptide substrate were obtained from Life Technologies.
Serially diluted compounds were pre-incubated with each of the four JAK enzymes and the substrate in white 384-well microplates (Corning) at ambient temperature for 1h. ATP was subsequently added to initiate the kinase reactions in 10 μL total volume, with 1% DMSO. […] The plates were allowed to incubate at ambient temperature for 1h before being read on the EnVision reader (Perkin Elmer).
For dose-response analysis, percent inhibition data were plotted vs. compound concentrations, and IC50 values were determined from a 4-parameter robust fit model with the Prism software (GraphPad Software). Results were expressed as pIC50 (negative logarithm of IC50) and subsequently converted to pKi (negative logarithm of dissociation constant, Ki) using the Cheng-Prusoff equation.

[6] = Dynamic moisture sorption assessment; type: physicochemical; conditions: 5% to 90% relative humidity; for weight gain: 25° C.
Procedure: Dynamic moisture sorption (DMS) measurement was performed using a VTI atmospheric microbalance, SGA-100 system (VTI Corp., Hialeah, Fla. 33016). A weighed sample was used and the humidity was lowest possible value (close to 0% RH) at the start of the analysis. The DMS analysis consisted of an initial drying step (0% RH) for 120 minutes, followed by two cycles of sorption and desorption with a scan rate of 5% RH/step over the humidity range of 5% RH to 90% RH. The DMS run was performed isothermally at 25° C.

Chain of JAK3 (P52333 whole entry): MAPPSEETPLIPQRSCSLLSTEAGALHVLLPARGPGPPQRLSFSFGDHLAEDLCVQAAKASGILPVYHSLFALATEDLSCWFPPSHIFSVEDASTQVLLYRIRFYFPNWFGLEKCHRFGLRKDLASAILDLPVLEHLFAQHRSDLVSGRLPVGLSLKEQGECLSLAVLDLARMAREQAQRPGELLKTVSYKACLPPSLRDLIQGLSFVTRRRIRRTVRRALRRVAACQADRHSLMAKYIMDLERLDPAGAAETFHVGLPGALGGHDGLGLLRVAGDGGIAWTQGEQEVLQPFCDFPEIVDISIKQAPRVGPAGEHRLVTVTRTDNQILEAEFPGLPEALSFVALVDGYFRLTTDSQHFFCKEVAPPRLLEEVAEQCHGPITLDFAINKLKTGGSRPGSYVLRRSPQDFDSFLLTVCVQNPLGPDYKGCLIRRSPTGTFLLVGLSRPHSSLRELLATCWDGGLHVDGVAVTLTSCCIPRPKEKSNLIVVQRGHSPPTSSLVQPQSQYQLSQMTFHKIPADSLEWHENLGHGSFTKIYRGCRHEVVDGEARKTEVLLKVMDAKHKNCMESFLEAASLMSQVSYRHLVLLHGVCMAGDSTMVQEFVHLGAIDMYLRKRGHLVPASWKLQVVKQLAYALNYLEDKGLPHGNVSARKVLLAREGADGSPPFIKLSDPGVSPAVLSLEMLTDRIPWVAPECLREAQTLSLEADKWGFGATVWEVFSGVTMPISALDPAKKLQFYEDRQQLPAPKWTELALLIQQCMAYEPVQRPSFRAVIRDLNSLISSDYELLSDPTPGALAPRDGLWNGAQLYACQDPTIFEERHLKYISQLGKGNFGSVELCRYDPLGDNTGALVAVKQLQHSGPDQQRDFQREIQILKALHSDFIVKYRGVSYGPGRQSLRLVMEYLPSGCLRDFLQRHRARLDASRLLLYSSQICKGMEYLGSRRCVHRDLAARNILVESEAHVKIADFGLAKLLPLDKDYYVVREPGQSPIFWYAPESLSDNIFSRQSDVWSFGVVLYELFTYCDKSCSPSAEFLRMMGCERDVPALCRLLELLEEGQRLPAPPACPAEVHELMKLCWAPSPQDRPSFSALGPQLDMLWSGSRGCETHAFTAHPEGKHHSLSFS

Compound: COc1cc(Nc2cc(CO)[nH]n2)nc(N(C)[C@@H]2C[C@H]3CCC[C@@H](C2)N3S(=O)(=O)N2CC(C#N)C2)n1 [Example 2, 1-(((1R,3s,5S)-3-((4-((5-(Hydroxymethyl)-1H-pyrazol-3-yl)amino)-6-methoxypyrimidin-2-yl)(methyl)amino)-9-azabicyclo[3.3.1]nonan-9-yl)sulfonyl)azetidine-3-carbonitrile]
ratio of exposure in the colon to exposure in plasma [1]: greater than 250
activity in the oxazolone-induced colitis model [2]: demonstrated activity
inhibition of TPA-induced increase in ear thickness [3]: dose- and concentration-dependent effect; also recorded: dose- and concentration-dependent inhibition
effect of immunosuppression [4]: minimal effect of immunosuppression
B and T cell populations (spleen) [4]: No treatment effect

Compound: COc1cc(Nc2cc(CO)[nH]n2)nc(N(C)[C@@H]2C[C@H]3CCC[C@@H](C2)N3C(=O)C(F)F)n1 [Example 9, 2,2-difluoro-1-((1R,3s,5S)-3-((4-((5-(hydroxymethyl)-1H-pyrazol-3-yl)amino)-6-methoxypyrimidin-2-yl)(methyl)amino)-9-azabicyclo[3.3.1]nonan-9-yl)ethan-1-one]
JAK 3 (pKi) [5]: D (D represents a pKi value between 7.5 and 8 (Ki between 31.6 nM and 10 nM))

Compound: COc1cc(Nc2cc(CO)[nH]n2)nc(N(C)[C@@H]2C[C@H]3CCC[C@@H](C2)N3S(=O)(=O)N2CC(C#N)C2)n1 [Form I, 1-(((1R,3s,5S)-3-((4-((5-(hydroxymethyl)-1H-pyrazol-3-yl)amino)-6-methoxypyrimidin-2-yl)(methyl)amino)-9-azabicyclo[3.3.1]nonan-9-yl)sulfonyl)azetidine-3-carbonitrile]
hygroscopicity [6]: non-hygroscopic
weight gain [6]: less than 0.4%
weight gain ([6]; listed as Crystalline 1-((1R,3s,5S)-3-((4-((5-(hydroxymethyl)-1H-pyrazol-3-yl)amino)-6-me)))): less than 0.4%

Compound: COc1cc(Nc2cc(CO)[nH]n2)nc(N(C)[C@@H]2C[C@H]3CCC[C@@H](C2)N3S(=O)(=O)N2CC(C#N)C2)n1 [Form II, 1-(((1R,3s,5S)-3-((4-((5-(hydroxymethyl)-1H-pyrazol-3-yl)amino)-6-methoxypyrimidin-2-yl)(methyl)amino)-9-azabicyclo[3.3.1]nonan-9-yl)sulfonyl)azetidine-3-carbonitrile]
weight gain [6]: about 1.2%

B and T cell populations (spleen) [4]: No treatment effect
Compound: C[C@@H]1CCN(C(=O)CC#N)C[C@@H]1N(C)c1ncnc2[nH]ccc12 [tofacitinib, reference compound]
